Results published in patent US7618958B2, “Stereospecific anxiolytic and anticonvulsant agents with reduced muscle-relaxant, sedative-hypnotic and ataxic effects” (WISYS Technology Foundation, Inc., priority 2004, dated 2009).

Tests used:
α1β3γ2 GABAA receptors = biological target: T1, α1β3γ2 GABAA receptors (Rattus norvegicus, UniProt P18508+P62813); assay: Two-electrode voltage clamp in Xenopus oocytes, α1β3γ2; type: cell-based; details: FIG. 1, Xenopus oocytes
T1 construct: expressed in transfected cells; host or cells: Xenopus laevis oocytes injected with cRNA
T1 sequence (P62813 28-455): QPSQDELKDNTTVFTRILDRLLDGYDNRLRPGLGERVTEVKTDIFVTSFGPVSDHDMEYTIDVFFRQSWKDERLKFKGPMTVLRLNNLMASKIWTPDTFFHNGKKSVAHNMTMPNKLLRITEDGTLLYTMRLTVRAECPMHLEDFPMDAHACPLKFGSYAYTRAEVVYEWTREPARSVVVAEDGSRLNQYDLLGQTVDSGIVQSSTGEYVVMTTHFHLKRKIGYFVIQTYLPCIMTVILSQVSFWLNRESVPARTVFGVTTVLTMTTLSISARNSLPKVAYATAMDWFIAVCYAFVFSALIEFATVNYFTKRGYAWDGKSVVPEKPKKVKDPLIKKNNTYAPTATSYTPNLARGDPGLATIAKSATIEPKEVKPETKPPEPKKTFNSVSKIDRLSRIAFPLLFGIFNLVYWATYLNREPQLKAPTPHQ
T1 sequence (P63079 26-473 partner): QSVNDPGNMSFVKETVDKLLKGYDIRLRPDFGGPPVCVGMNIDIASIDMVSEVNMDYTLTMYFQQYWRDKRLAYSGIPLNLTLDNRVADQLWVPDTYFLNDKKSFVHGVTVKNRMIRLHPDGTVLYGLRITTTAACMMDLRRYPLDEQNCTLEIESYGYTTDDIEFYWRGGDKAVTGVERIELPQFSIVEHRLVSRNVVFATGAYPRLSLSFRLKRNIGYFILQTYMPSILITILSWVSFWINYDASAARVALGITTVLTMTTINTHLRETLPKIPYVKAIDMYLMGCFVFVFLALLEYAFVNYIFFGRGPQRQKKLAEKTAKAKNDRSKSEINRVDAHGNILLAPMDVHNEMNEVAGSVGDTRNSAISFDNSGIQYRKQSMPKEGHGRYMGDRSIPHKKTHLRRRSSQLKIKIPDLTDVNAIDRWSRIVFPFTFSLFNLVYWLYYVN
T1 sequence (P18508 39-466): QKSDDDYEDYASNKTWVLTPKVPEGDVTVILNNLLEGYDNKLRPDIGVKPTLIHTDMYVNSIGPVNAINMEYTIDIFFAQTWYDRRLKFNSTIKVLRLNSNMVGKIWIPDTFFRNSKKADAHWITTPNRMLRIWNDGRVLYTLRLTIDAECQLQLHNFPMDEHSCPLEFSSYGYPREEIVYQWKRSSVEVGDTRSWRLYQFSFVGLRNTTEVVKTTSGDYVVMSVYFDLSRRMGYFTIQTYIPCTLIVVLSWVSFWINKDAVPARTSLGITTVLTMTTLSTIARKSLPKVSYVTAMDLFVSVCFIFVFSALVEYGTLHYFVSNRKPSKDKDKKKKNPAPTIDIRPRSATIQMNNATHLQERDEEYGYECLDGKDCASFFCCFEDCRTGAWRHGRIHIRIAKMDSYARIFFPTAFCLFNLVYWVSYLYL
Description: (§1) 1. Effects of SH-053-S—CH3 8 on GABA(A) receptors were tested by two-electrode voltage clamp experiments in cRNA injected Xenopus oocytes that functionally expressed several subtype combinations of GABAA receptors. […] This oocyte profile is indicative of an anxiolytic agent devoid of sedative, ataxic and anterograde amnestic side effects.
(§2) The methods were based on those published previously. See Li, X., et al., (2003) J. Med. Chem. 46: 5567-5570.
(§3) Cloning of GABAA receptor subunits α1, β3 and γ2 into pCDM8 expression vectors (Invitrogen, CA) has been described elsewhere ([…]). GABAA receptor subunit α4 was cloned in an analogous way. cDNAs for subunits α2, α3 and α5 were gifts from P. Malherbe and were subcloned into pCI-vector (Li, et al., 2003). cDNA for subunit α6 was a gift from P. Seeburg and was subcloned into the vector pGEM-3Z (Promega). After linearizing the cDNA vectors with appropriate restriction endonucleases, capped transcripts were produced using the mMessage mMachine T7 transcription kit (Ambion, Tex.). The capped transcripts were polyadenylated using yeast poly(A) polymerase (USB, OH) and were diluted and stored in diethylpyrocarbonate-treated water at −70° C. (Li, et al., 2003). […]

α3β3γ2 GABAA receptors = biological target: T2, α3β3γ2 GABAA receptors (Rattus norvegicus, UniProt P18508+P20236); assay: Two-electrode voltage clamp in Xenopus oocytes, α3β3γ2; type: cell-based; details: FIG. 1, Xenopus oocytes
T2 construct: expressed in transfected cells; host or cells: Xenopus laevis oocytes injected with cRNA
T2 sequence (P20236 29-493): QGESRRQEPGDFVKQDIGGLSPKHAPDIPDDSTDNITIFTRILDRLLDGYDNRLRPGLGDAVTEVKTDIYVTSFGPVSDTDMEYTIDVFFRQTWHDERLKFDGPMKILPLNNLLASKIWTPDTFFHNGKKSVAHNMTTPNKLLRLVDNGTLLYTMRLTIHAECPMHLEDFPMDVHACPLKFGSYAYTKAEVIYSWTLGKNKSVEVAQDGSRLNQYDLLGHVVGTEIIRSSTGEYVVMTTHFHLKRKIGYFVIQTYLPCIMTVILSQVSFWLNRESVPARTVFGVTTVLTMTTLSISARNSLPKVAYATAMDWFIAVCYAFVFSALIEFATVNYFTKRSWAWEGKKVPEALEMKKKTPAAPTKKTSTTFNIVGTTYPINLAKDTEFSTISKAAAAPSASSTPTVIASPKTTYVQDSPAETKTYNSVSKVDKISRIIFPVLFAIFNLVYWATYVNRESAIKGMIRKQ
T2 sequence (P63079 26-473 partner): as the sequence (P63079 26-473 partner) above
T2 sequence (P18508 39-466): as the sequence (P18508 39-466) above
Description: as §1, §2, §3

C#Cc1ccc2c(c1)C(c1ccccc1)=NC(C)c1c(C(=O)OCC)ncn1-2 (centres unmarked) [SH-053-S—CH3, 8-Ethynyl-4-methyl-6-phenyl-4H-2,5,10b-triaza-benzo[e]azulene-3-carboxylic acid ethyl ester]
efficacy at α1β3γ2 subtypes (α1β3γ2 GABAA receptors): almost no efficacy
efficacy at α3β3γ2 subtypes (α3β3γ2 GABAA receptors): agonist
